SMILES strings stand for the structures.

The nature of the data set: gradient 5% acetonitrile 3 min, to 50% in 2 min, to 85% in 15 min, held 3 min, 100 µL/min. Particulars: column: Zorbax Extend-C18 2.1 x 50 mm; eluents: water / acetonitrile, 0.1% formic acid. An outline of the steps: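 Over 3 months, pure standards in mixtures of ~100 molecules were run by HPLC coupled to a quadrupole time-of-flight mass spectrometer in positive and negative ionization mode. The column was a Zorbax Extend-C18 (2.1 × 50 mm, 1.8 μm) at 100 μL/min, eluted with water and acetonitrile each holding 0.1% formic acid, with 40 μL dead and 900 μL dwell volumes. Retention time was determined from adduct peaks chosen by software and checked manually.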
The compound `O=C(c1cn(-c2ccc(S(=O)(=O)N3CCOCC3)cc2)cn1)N1CCN(c2ccccn2)CC1` yielded an RP-LC retention time of 598 s.

Turning to `O=C(NC1CCN(Cc2ccccc2)CC1)c1csc(-c2ccc(N3CCCC3)nc2)n1`, the RP-LC retention time came to 565 s. Next, `CCNC(=O)C1CCN(c2cc(SCC(=O)Nc3ccccc3OCC)ncn2)CC1`: 760 s; `CC(C)OCCCNC(=O)c1ccc2nc(Cc3ccccc3)oc2c1`: 884 s; `Cc1cc(C)cc(C(=O)Nc2cc(-c3ccccn3)no2)c1`: 911 s. On to `CC1CCCN(S(=O)(=O)c2ccc(-n3cnc(C(=O)N4CCCC4)c3)nc2)C1` (centres undefined), for which the RP-LC retention time worked out at 817 s. The compound `CCCCN(C)C(=O)c1ccc2c(c1)nc1n2CCN(C2CCCCC2)C1=O` came in with an RP-LC retention time of 786 s.

As to `COc1ccccc1NC(=O)N1CCC(n2c(C(F)(F)F)nc3cccnc32)CC1`, the RP-LC retention time stood at 898 s. In the case of `Cc1cc(NC(=O)c2cc(-c3cccs3)[nH]n2)sn1`, the RP-LC retention time turned out to be 672 s. For `COc1ccc(-c2c(C)noc2NC(C)=O)cc1S(=O)(=O)N1CCN(C(=O)c2ccco2)CC1` the value was 670 s. Next, `Cc1ccc(CNC(=O)Cn2c(N(C)Cc3ccccc3)nc(C)cc2=O)cc1`: 778 s. Next, `Cn1ccc2cc(S(=O)(=O)N3CCC(C(=O)N4CCN(c5ncccn5)CC4)CC3)ccc21`: 821 s.

As for `Cc1cc(C)c2c(N3CCSCC3)nc(C(=O)N3CCCC3)nc2n1`, the RP-LC retention time was found to be 617 s. As to `CC(C)CC(NC(=O)Cc1cccs1)C(=O)Nc1nc2ccccc2[nH]1` (centres undefined), the RP-LC retention time was 716 s.

On to `COc1ccccc1C(=O)N1CCC2(CC1)NC(=O)c1cc(C)ccc1N2C`, for which the RP-LC retention time was 732 s. For `O=C1Nc2ccccc2C12OCC1(CO2)COC2(OC1)C(=O)Nc1ccccc12` (centres undefined) the value was 784 s; for `CN1CCN(c2ncc3c(n2)CC(c2ccc(Cl)cc2)CC3=O)CC1` (centres undefined), 674 s; for `Cn1cccc(C(=O)N2CCC3(CC2)OCCN3S(=O)(=O)c2ccccc2)c1=O`, 616 s.

As for `CCOc1cc(-c2ccc(Cl)cc2)nc2ccc(NC(C)=O)cc12`, the RP-LC retention time is 686 s. In the case of `O=C(NC1(c2nc(-c3ccncc3)no2)CCCCC1)c1ccccc1`, the RP-LC retention time turned out to be 863 s. The compound `O=C1N(c2cccc(F)c2)C(c2ccccc2)C12CCNCC2` (centres undefined) gave an RP-LC retention time of 669 s. Next, `COCCNC(=O)N1CCCN(C2=NS(=O)(=O)C(c3cccc(Cl)c3)=C2C)CC1`: 706 s; `CCOc1ccc(-c2csc(NC(=O)CCCc3nc(-c4ccccc4Cl)no3)n2)cc1`: 1160 s; `O=C(CN1C(=O)CCCc2cc(S(=O)(=O)N3CCCC3)ccc21)Nc1ccc(Cl)cc1F`: 897 s. Compound `CCc1nc2cc3c(cc2n1CC(=O)Nc1ccc(C)cc1)OCCO3` came in with an RP-LC retention time of 678 s. In turn, `CC1CCN(C(=O)c2cc3c(s2)CCC(C(=O)N2CCN(C)CC2)C3)CC1` (centres undefined) registered an RP-LC retention time of 575 s. For `COc1ccccc1Nc1c(-c2ccc(C)cc2)nc2cnccn12` the value was 954 s; for `COC(=O)C(C)n1nc2nc(Nc3ccc(C)c(F)c3)cc(C)n2c1=O` (centres undefined), 1100 s. Next, `CC1CCN(c2cc(-n3cnc(C(=O)N4CCCCCC4)c3)ncn2)CC1`: 1010 s; `COc1ccc(CN(CCC2(C(C)C)CCOC(C)(C)C2)C(C)=O)cc1OC` (centres undefined): 864 s; `Fc1ccc(Cc2nc(-c3ccn4cnnc4c3)no2)cc1`: 764 s. Next, `CC1(C)CC(=O)c2cn(-c3ccccc3)c(=O)c(C(=O)Nc3cccc(C#N)c3)c2C1`: 1030 s. Consider `O=C(c1ccc(-c2cccs2)nc1)N1CCCCC1`, for which the RP-LC retention time was determined as 813 s. As to `Cc1ccccc1Cc1c(C)nc2nc(SCC(=O)NCCCN3CCOCC3)nn2c1C`, the RP-LC retention time turned out to be 643 s. Next, `Cc1nnc2cc(N3CCN(C(=O)Nc4ccc(F)c(Cl)c4)CC3)cnn12`: 658 s; `CCc1nc2sc(C(C)C)nn2c1S(=O)(=O)N1CCCC1`: 945 s. The compound `Cc1cccc(NC(=O)Cn2c(=O)n(-c3ccc(F)cc3)c3ncccc32)c1` came in with an RP-LC retention time of 876 s. `Cc1nn(CC(=O)NCc2cccnc2)c(=O)c2nc(-c3ccccc3)sc12`: the RP-LC retention time was found to be 614 s. `CCOC(=O)c1sc(NC(=O)C2CCCO2)nc1-c1ccccc1` (centres undefined) registered an RP-LC retention time of 950 s. Take `COc1ccc(CC(=O)N2CCc3cc(-c4noc(C)n4)ccc32)cc1Cl`: the RP-LC retention time came out at 979 s. For the compound `N#Cc1cccc(Cn2cc(S(=O)(=O)N3CCCC3)ccc2=O)c1`, the RP-LC retention time was 764 s. Compound `Cc1ccc(S(=O)(=O)N2CCC(n3cnnc3C)CC2)cc1Cl` gave an RP-LC retention time of 736 s. Next, `O=C(NCc1csc(-c2ccccc2)n1)C1CCN(S(=O)(=O)c2ccc(Cl)cc2)CC1`: 976 s. For the compound `CC1(C(=O)Nc2ccc(Cl)cc2F)Oc2cccnc2NC1=O` (centres undefined), the RP-LC retention time was 774 s.

As to `CCn1c(=O)oc2cc(-c3noc(-c4ccc(OC)cc4)n3)ccc21`, the RP-LC retention time was 976 s. Next, `Cc1noc(C)c1C1CCCN1C(=O)Nc1ccccc1C(F)(F)F` (centres undefined): 879 s. Next, `Cc1cccc(NC(=O)N2CCc3c(c(-c4nnc(-c5ccccc5Cl)o4)nn3C)C2)c1`: 902 s; `COc1ccc(N2CCOCC2)c2sc(NC(=O)N3CCC(C)(O)CC3)nc12`: 732 s. Next, `CC(C)n1cc(CN2CC(F)(F)C[C@H]2COc2cccnc2)c2ccccc21`: 698 s; `O=S(=O)(c1ccccc1Cl)N1CCN(Cc2cccc(F)c2)C2(CCOCC2)C1`: 846 s.

Turning to `Cc1ccc(S(=O)(=O)c2cnc3cc4c(cc3c2N2CCOCC2)OCCO4)cc1`, the RP-LC retention time was determined as 849 s.

`CSc1ccc(CNC(=O)C2CCN(Cc3cn(C)c4ccc(Cl)cc34)CC2)cc1` displayed an RP-LC retention time of 766 s. `COc1ccc(F)cc1S(=O)(=O)N1CCN(C2CCN(C)C2=O)CC1` (centres undefined) displayed an RP-LC retention time of 550 s. Next, `Cc1cc(NC(=O)C(=O)NCCCn2ccnc2)ccc1Br`: 659 s; `COc1cccc(-c2noc(Cn3c(=O)n(-c4ccccc4C)c(=O)c4sccc43)n2)c1`: 978 s.

`O=S(=O)(NCC1CCN(Cc2ccco2)CC1)c1ccc(F)c(Cl)c1` showed an RP-LC retention time of 575 s. For `CC(=O)N1c2ccc(S(=O)(=O)N3CCCC3)cc2CC1C(=O)N1CCN(c2ccccn2)CC1` (centres undefined) the value was 609 s; for `O=C(Nc1cccc2cccnc12)C1COCC(=O)N1Cc1ccccc1` (centres undefined), 777 s. As for `CCN1CCC(N2CCC3(CC2)NCCc2c3[nH]c3ccc(OC)cc23)CC1`, the RP-LC retention time was 517 s. Compound `CCN1CCN(C(=O)C2CCCN(S(=O)(=O)c3cc(-c4noc(C)n4)cs3)C2)CC1` (centres undefined) yielded an RP-LC retention time of 612 s. Next, `Cc1ccc(-c2coc(-c3ccc(NC(=O)c4cccs4)cc3)n2)c(C)c1`: 1270 s; `CNC(=O)c1cc2cccc3c2n1CC(C)S3` (centres undefined): 853 s.

Regarding `CC(C)(C)NC(=O)NC1CCN(C(=O)C2CCC2)C1` (centres undefined), the RP-LC retention time was determined as 636 s. Take `CC(=O)N1CCc2sc(S(=O)(=O)N3CCN(c4cccc(Cl)c4)CC3)cc2C1`: the RP-LC retention time was determined as 957 s. Regarding `COc1ccccc1NC(=O)C(=O)c1ccc[nH]1`, the RP-LC retention time amounted to 908 s. `CCC(c1cccs1)N1C(=O)[C@H]2CN(S(=O)(=O)Cc3ccccc3)C[C@H]2C1=O` (some centres undefined) showed an RP-LC retention time of 964 s. For `Cc1noc(C)c1CC(=O)N1CCN(c2ncnc3c2CCC3)CC1` the value was 559 s; for `CCOc1ccc(CN2CC(N(Cc3ccncc3)S(C)(=O)=O)C2)cc1`, 560 s; for `CC(C)CCN1CCC(N2CCN(C(=O)c3cccs3)CC2)C1=O` (centres undefined), 567 s. Next, `CCn1c(=O)c(C(=O)NCc2ccc(C)cc2)nc2cccnc21`: 781 s.

In the case of `Cc1[nH]c(-c2ccc(Cl)cc2)cc1C(=O)NC1CCCCC1`, the RP-LC retention time came out at 990 s. Turning to `CCOc1ccc(-c2noc(Cn3cnc4c(cnn4-c4ccccc4)c3=O)n2)cc1OC`, the RP-LC retention time came out at 980 s. The compound `Cc1nn(-c2ccccc2)c(C)c1S(=O)(=O)N1CCC(C(=O)NCc2cccs2)CC1` came in with an RP-LC retention time of 876 s. For `O=c1c2ccccc2c(-c2nc(-c3ccncc3)no2)cn1-c1ccccc1` the value was 1050 s. For `COc1cccc(C2c3c(oc4ccc(C)cc4c3=O)C(=O)N2CCCN2CCOCC2)c1OC` (centres undefined) the value was 808 s. For `O=C(Cn1c(=O)oc2ccccc21)Nc1nc(-c2ccccc2)cs1` the value was 912 s. The compound `CC(=O)N1C[C@@H]2CCCN3CCC[C@@H]([C@H]23)[C@H]1CCCC(=O)NCCCc1c(C)noc1C` registered an RP-LC retention time of 575 s. For `CCOC(=O)c1c(S(=O)(=O)N2CCC(C(=O)NCCc3ccccc3)CC2)c(C)n(C)c1C` the value was 826 s; for `CCn1cnc(S(=O)(=O)N2CCCC(C(=O)NCCc3ccccc3)C2)c1` (centres undefined), 702 s.
